Assay results as given in patent US9518055B2, “Imidazopyridyl compounds as aldosterone synthase inhibitors” (Merck Sharp & Dohme Corp., priority 2011, dated 2016).

Legend:
human CYP11B2 = human CYP11B2 (Homo sapiens (Human), UniProt P19099); test: V79-Human-CYP11B2 cell assay; type: cell-based; details: V79 cells stably expressing human CYP11B2; 125 nM 11-deoxycorticosterone substrate; aldosterone measured by HTRF
Experimental: (§1) Methods for V79-Human-CYP11B2 and V79-Human-CYP11B1 Assays:
(§2) V79 cell lines stably expressing the either the human CYP11B2 or the human CYP11B1 enzyme were generated using a standard transfection protocol. V79 cells were transfected with plasmids pTriEx3-Hygro-hCyp11B2 or pTriEx3-Hygro-hCyp11B1 using Lipofectamine2000 reagent. V79 cells that stably express the human CYP11B2 or human CYP11B1 enzyme were selected for and maintained in DMEM supplemented with 10% FBS and 400 μg/mL hygromycin for ˜2 weeks. Single cell clones were generated by […] in DMEM supplemented with 10% FBS and 400 μg/mL hygromycin until single colonies were obtained. […] For testing of inhibitors, cells were harvested at 80% confluency with 0.5% Trypsan-EDTA, washed once in PBS, and reconstituted in DMEM+0.1% BSA media at a cell concentration of 600,000 cells/mL for the CYP11B2 assay and 280,000 cells/mL for the CYP11B1 assay. 25 μL of cells were added to a 384 well tissue culture treated plate and mixed with 0.3 μL of inhibitor or DMSO (1% final DMSO concentration) for 1 hour at 37° C., 5% CO2. […] The reaction was carried out for 3 hours at 37° C., 5% CO2 and was stopped by harvesting the supernatants. The amount of product in the supernatant (aldosterone for CYP11B2 assay and cortisol for the CYP11B1 assay) was measured using HTRF-based assay kit (Aldosterone HTRF-CisBio#64ALDPEB, Cortisol HTRF-CisBio #63IDC002-CORT). IC50s for the inhibitor were determined by plotting the amount of product formed against the concentration of inhibitor using sigmoidal dose-response curve (variable slope) fit in GraphPad.

human CYP11B1 = human CYP11B1 (Homo sapiens (Human), UniProt P15538); test: V79-Human-CYP11B1 cell assay; type: cell-based; details: for inhibition at 10 µM: starred values of the CYP11B1 column; for IC50: V79 cells stably expressing human CYP11B1, 250 nM 11-deoxycortisol substrate, cortisol measured by HTRF
Experimental: as §1, §2

Chain of human CYP11B2 (P19099 25-503): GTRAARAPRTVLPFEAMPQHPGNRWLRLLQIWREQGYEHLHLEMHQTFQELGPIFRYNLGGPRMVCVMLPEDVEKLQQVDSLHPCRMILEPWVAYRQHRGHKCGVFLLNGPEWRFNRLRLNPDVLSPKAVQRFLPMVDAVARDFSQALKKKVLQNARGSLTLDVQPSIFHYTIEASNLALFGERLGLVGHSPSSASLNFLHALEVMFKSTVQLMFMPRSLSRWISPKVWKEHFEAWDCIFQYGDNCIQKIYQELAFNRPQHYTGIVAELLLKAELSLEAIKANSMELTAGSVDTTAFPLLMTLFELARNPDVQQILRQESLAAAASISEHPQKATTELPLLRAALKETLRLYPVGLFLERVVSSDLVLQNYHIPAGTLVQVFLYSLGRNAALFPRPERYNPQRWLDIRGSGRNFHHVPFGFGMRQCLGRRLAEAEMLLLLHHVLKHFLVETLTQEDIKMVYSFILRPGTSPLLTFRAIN
Chain of human CYP11B1 (P15538 25-503): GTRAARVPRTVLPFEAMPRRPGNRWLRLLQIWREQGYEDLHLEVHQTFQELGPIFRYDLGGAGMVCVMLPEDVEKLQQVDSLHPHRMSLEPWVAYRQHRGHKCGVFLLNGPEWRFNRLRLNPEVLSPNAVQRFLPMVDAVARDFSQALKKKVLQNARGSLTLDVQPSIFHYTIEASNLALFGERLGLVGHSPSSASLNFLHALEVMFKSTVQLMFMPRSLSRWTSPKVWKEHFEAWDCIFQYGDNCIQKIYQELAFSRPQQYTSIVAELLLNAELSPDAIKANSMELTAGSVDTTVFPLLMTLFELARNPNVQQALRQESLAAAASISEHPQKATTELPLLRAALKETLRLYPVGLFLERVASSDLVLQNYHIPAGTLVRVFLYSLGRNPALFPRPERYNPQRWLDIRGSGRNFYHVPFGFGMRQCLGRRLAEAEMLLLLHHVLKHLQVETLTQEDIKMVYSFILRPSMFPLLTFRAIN

IC50 (human CYP11B2) | inhibition at 10 µM (human CYP11B1) | IC50 (human CYP11B1) | SMILES
56.2 nM | 60% |  | Cc1cncc(-c2cn3cc(F)ccc3n2)c1 [Example 7, 6-fluoro-2-(5-methylpyridin-3-yl)imidazo[1,2-a]pyridine]
0.3 nM |  | 32.4 nM | COc1cncc(-c2nc3ccc(F)cn3c2C)c1 [Example 18, 6-fluoro-3-methyl-2-(5-methoxypyridin-3-yl)imidazo[1,2-a]pyridine]
2.2 nM |  | 135 nM | Cc1ccncc1-c1nc2ccc(F)cn2c1C [Example 20, 6-fluoro-3-methyl-2-(4-methylpyridin-3-yl)imidazo[1,2-a]pyridine]
4.7 nM |  | 912 nM | Cc1c(-c2cncc(F)c2)nc2cc(F)ccn12 [Example 26, 7-fluoro-2-(5-fluoropyridin-3-yl)-3-methylimidazo[1,2-a]pyridine]
0.45 nM |  | 40.7 nM | Cc1cncc(-c2nc3ccc(F)cn3c2C)c1 [Example 19, 6-fluoro-3-methyl-2-(5-methylpyridin-3-yl)imidazo[1,2-a]pyridine]
0.1 nM |  | 14.8 nM | Cc1c(-c2cncc3ccccc23)nc2ccc(F)cn12 [Example 25]
22.4 nM | 63% |  | Cc1ccncc1-c1cn2cc(F)ccc2n1 [Example 6, 6-fluoro-2-(4-methylpyridin-3-yl)imidazo[1,2-a]pyridine]
